Measurements published in US11771729B2, “Maca extract and use thereof” (KAOHSIUNG MEDICAL UNIVERSITY, priority 2021, dated 2023).
Where two headings read alike, the source gives them in different places. Marks after values point to notes of the source that are not given here.

How the values were obtained:
[1] = system: RBL-2H3 cells; test: Anti-allergy test: A23187-induced β-hexosaminidase release; type: cell-based; conditions: for A23187-induced β-hexosaminidase release Inhibition rate (%): Table 4, isolated compounds, concentration not given (values equal 100 μM column of Table 6)
Protocol: (§1) Equivalently divided supernatants (50 μL) of control wells and experimental wells were incubated with an equal volume (50 μL) of […] p-NAG prepared in 0.1 M citrate buffer (pH 4.5), in which the buffer is formed as a matrix of released β-hexosaminidase; the reaction, after 1 hour incubation at 37° C., was stopped by adding 100 μL of termination buffer (0.1M Na2/NaHCO3, pH 10.0), and then, the absorbance at a wavelength of 405 nm was measured with a microplate reader. The percentage of inhibiting RBL-2H3 cells from releasing β-hexosaminidase was calculated as the percentage of control (untreated stimulated cells), and azelastine (20 μM) was used as a positive control. The test results are shown in Tables 4 to 6 below, and the corresponding results are indicated as mean±SEM (the test was repeated 3 times), wherein * denotes p<0.05, ** denotes p<0.01, *** denotes p<0.001; - denotes being untested; and N/A denotes that the specimen forms mycelium added to the medium, and accordingly, the results cannot be proven.

[2] = system: RBL-2H3 cells; test: Anti-allergy test: antigen-induced β-hexosaminidase release; type: cell-based; conditions: for Antigen-induced β-hexosaminidase release Inhibition rate (%): Table 4, isolated compounds, concentration not given
Protocol: as §1

[3] = system: RBL-2H3 cells; test: Cell viability of RBL-2H3 cells (MTT); conditions: for Viability of RBL-2H3 cells at 200 μg/ml: Table 6, isolated compounds, head prints 200 μg/ml
Protocol: (§6) Cells were cultured using DMEM medium supplemented with 10% FBS, and additional 100 U/mL penicillin and 100 μg/mL streptomycin. The cells were cultured in 10 cm Petri dishes in a 5% CO2 incubator at 37° C., the cells were secondary cultured in 80% confluent trypsin, and then seeded on culture plates at a density of 2×10^5 cells/mL for secretion measurement.
(§7) Measurement on cell viability: RBL-2H3 cells were seeded in a 96-well plate at a concentration of 2×10^4 cells/well overnight, specimens having different concentrations (that is, maca extract, dissolved in DMSO) or untreated controls (1% DMSO in Tyrode buffer; 135 mM NaCl, 5 mM KCl, 1.8 mM CaCl, 1.0 mM MgCl2, 5.6 mM glucose, 20 mM HEPES and 1 mg/ml BSA, pH 7.4) were used to treat the cells, the media was removed from the wells after incubation at 37° C., 5% CO2, and an MTT solution (5 mg/mL) stock solution was diluted 1:10 in the medium and then added to the wells (100 μL per well); Thereafter, the cells were incubated at 37° C., 5% CO2 for 1 hours, the medium was removed, the formed Formazan crystals (which can be formed only in normal healthy cells) were dissolved in 100 μL DMSO, and the absorbance at 574 nm wavelength was measured using a microplate reader in which the plates were gently shaked before the measurement. Cell viability values for the specimens were calculated and indicated as a percentage (%) of the control groups (untreated cells).

[4] = system: human neutrophil; test: Anti-neutrophil inflammation test: elastase release; type: cell-based; conditions: isolated compounds (10 μM) and positive controls 10 μM, fMLF/CB-activated neutrophils, mean±SEM; for inhibition at 10 µM: Homo sapiens, Neutrophil, read-out: Inhibition rate (%) Elastase release
Protocol: (§2) Isolation of human neutrophil: According to the standard scheme of […] sedimentation, neutrophils was obtained from peripheral blood, and then, the neutrophils were purified by centrifugation and erythrocyte hypotonic degradation in a Ficoll-Hypaque gradient; and then, it was confirmed by the trypan blue exclusion test that the purified neutrophils contained more than 98% live cells, and the purified neutrophils were suspended in HBSS without calcium at 4° C. (Yang et al., 2013) prior to the test.
The elastase release was used to measure degranulation of azurophilic granules in activated neutrophils (Yang et al., 2013); and the measurement was performed using methoxysuccinyl-Ala-Ala-Pro-Val-p-nitroaniline as an elastase matrix. At 37° C., neutrophils (6×10^5 cells/mL) were added to a mixture of matrix (100 μmol/L) and CaCl2 (1 mmol/L), and treated with the test specimens having different concentrations (that is, maca extract) or DMSO (0.1% as control) for 5 minutes, and then the cells were stimulated by using fMLF (100 nM)/CB (0.5 μg/mL), and changes in absorbance at the 405 nm wavelength were continuously monitored to measure the release of elastase, in which genistein and LY294002 were used as positive controls. The corresponding results are indicated as mean±SEM (the test was repeated 3 or 4 times), in which * denotes p<0.05, ** denotes p<0.01, *** denotes p<0.001; and - denotes being untested.

[5] = system: human neutrophil; test: Anti-neutrophil inflammation test: superoxide anion generation; type: cell-based; conditions: isolated compounds (10 μM) and positive controls 10 μM, fMLF/CB-activated neutrophils, mean±SEM; for inhibition at 10 µM: Homo sapiens, Neutrophil, read-out: Inhibition rate (%) Superoxide anion generation
Protocol: as §2
The level of superoxide anion generation by neutrophil activation was measured and determined based on the ferrocytochrome c reduction method according to Yang et al., 2013. In other words, human neutrophil cells (6×10^5 cells/mL) were mixed with 0.6 mg/mL of ferrocytochrome c and 1 mmol/L of CaCl at 37° C., and then the cells were treated with the test specimens having different concentrations (that is, maca extract) or DMSO (0.1% as control) for 5 minutes; thereafter, 10 minutes before activation with 100 nM of fMLF, the cells were incubated with cytochalasin B (1 μg/mL) for 3 minutes, changes in absorbance according to the decrease in ferrocytochrome c at a wavelength of […] with continuous stirring were continuously monitored using a spectrophotometer, and reactions were calculated with and without superoxide dismutase (SOD, 100 U/mL) with dividing by the extinction coefficient of the decreased ferrocytochrome c (21.1 mM^−1 cm^−1) reduction, thereby obtaining the difference value.

[6] = system: human CD34-positive endothelial progenitor cells (EPC); test: Pro-angiogenic test: EPC cell growth; type: cell-based; conditions: mean±SEM
Protocol: (§3) Endothelial cell culture: Isolation and culture of human CD34-positive endothelial progenitor cells (EPC) were performed using conventional methods (Chen et al., 2018); human umbilical vein endothelial cells (HUVECs) were purchased from Promo Cell (Heidelberg, Germany); and EPCs and HUVECs were maintained in MV2 medium according to a known protocol (Chung et al., 2013).
(§4) Measurement of cell growth: EPCs and HUVECs were cultured overnight at a density of 5×10^3 cells per well in a 96-well plate, and then, in the presence of the test specimen (that is, maca extract), the original medium was replaced with MV2 minimal medium and incubated for 48 hours. The measurements on EPC cell growth were as described in Yang et al., 2019.
(§5) The results are shown in Table 1 as below, in which corresponding results are indicated as mean±SEM (the test was repeated 3 times as a whole), wherein, compared to the control group (DSMO), * denotes p<0.05, ** denotes p<0.01, *** denotes p<0.001; and - denotes being untested.

[7] = system: RBL-2H3 cells
Protocol: as §6, §7

[8] = system: human umbilical vein endothelial cells (HUVECs); test: Pro-angiogenic test: HUVEC cell growth; type: cell-based; conditions: VEGF 20 ng/mL, positive control, mean±SEM
Protocol: as §3, §4, §5

[9] = 50 μM of each isolated compound, 48 hours

Molecule	Percentage of inhibiting A23187-induced β-hexosaminidase release (%) 10 μM/mL [1]	Percentage of inhibiting A23187-induced β-hexosaminidase release (%) 100 μM/mL [1]	Percentage of inhibiting A23187-induced β-hexosaminidase release (%) 500 μM/mL [1]	Inhibition rate (%) Elastase release [4]	Percentage of inhibiting antigen-induced β-hexosaminidase release (%) 10 μM/mL [2]	Percentage of inhibiting antigen-induced β-hexosaminidase release (%) 100 μM/mL [2]	Percentage of inhibiting antigen-induced β-hexosaminidase release (%) 500 μM/mL [2]	Antigen-induced β-hexosaminidase release Inhibition rate (%) [2]	Inhibition rate (%) Superoxide anion generation [5]	Viability of RBL-2H3 cells at 200 μg/ml [3]	Cell growth rate (%) EPC [6, 9]	A23187-induced β-hexosaminidase release Inhibition rate (%) [1]	also measured
CN1CCCC(n2nc(Cc3ccc(Cl)cc3)c3ccccc3c2=O)CC1 (centres unmarked) [Azelastine, reference compound]													inhibition at 20 µM ([1]; RBL-2H3, azelastine 20 μM, positive control, read-out: Percentage of inhibiting A23187-induced β-hexosaminidase release (%)): 47.7 ± 3.2%; inhibition at 20 µM ([2]; RBL-2H3, azelastine 20 μM, positive control, read-out: Percentage of inhibiting antigen-induced β-hexosaminidase release (%)): 54.3 ± 1.8%; Viability of RBL-2H3 cells ([3]; azelastine 20 μM): 88.0%
CC(=O)[C@@H]1CCC(=O)N1Cc1ccccc1 [Compound 1, (5S)-acetyl-1-benzylpyrrolidine-2-ketone]	2.7 ± 1.2%	4.0 ± 1.7%	38.0±3.4%	1.59 ± 0.99%	3.7 ± 1.9%	5.7 ± 2.2%	9.0 ± 3.7%	9.0 ± 3.7%	7.50 ± 1.96 %	95.3%	99 ± 1%		
COCc1ccc(C=O)n1Cc1cccc(OC)c1 [Compound 3, 5-methoxymethyl-1-(m-methoxybenzyl)-2-aldehyde pyrrole]	3.7 ± 1.5%	4.7 ± 0.7%	12.7 ± 0.7%**		13.7 ± 1.9%	10.7 ± 3.3%	5.0 ± 4.1%	10.7 ± 3.3%		95.0%		4.7 ± 0.7%	
COc1cccc(Cn2c(C=O)ccc2CO)c1 [Compound 4, 5-hydroxymethyl-1-(m-methoxybenzyl)-2-aldehyde pyrrole]	8.3 ± 1.0%	6.7 ± 1.4%		0.00 ± 0.59%	16.7 ± 6.6%*	10.0 ± 4.1%		10.0 ± 4.1%	1.05 ± 0.78%	96.0%	103 ± 1%	6.7 ± 1.4%	
COCc1ccc(C=O)n1Cc1ccccc1 [Compound 5, 5-methoxymethyl-1-(benzyl)-2-aldehyde pyrrole]	21.3 ± 3.3%***	51.3 ± 4.6%***	57.7 ± 4.3%***	3.33 ± 0.50** %	9.0 ± 4.8%	11.7 ± 5.9%	8.3 ± 3.5%	11.7 ± 5.9%	21.59±5.35%	94.0%	99 ± 5%	51.3 ± 4.6*** %	IC50 ([1]; Table 6, isolated compounds): 96.1 µM
O=Cc1ccc(CO)n1Cc1ccccc1 [Compound 6, 5-hydroxymethyl-1-(benzyl)-2-aldehyde pyrrole]	5.7 ± 1.0%	9.7 ± 2.2%	26.0 ± 2.4%***	2.69 ± 0.49** %	10.3 ± 3.9%	3.7 ± 3.0%	0.3 ± 0.3%	3.7 ± 3.0%	5.44 ± 2.18%	100.0%	104 ± 4%	9.7 ± 2.2%	
O=Cc1cc[n+]([O-])cc1Cc1ccccc1 [Compound 7, 3-(benzyl)-1-(hydroxy)-4-aldehyde pyridine]	2.0 ± 1.6%	6.0 ± 0.8%	18.0 ± 3.4%***	2.48 ± 3.05%	11.7 ± 2.6%	8.0 ± 1.2%	0.0 ± 0.0%	8.0 ± 1.2%	10.94 ± 1.84 %		105 ± 3%	6.0 ± 0.8%	Viability of RBL-2H3 cells at 200 μg/ml [7]: 94.7%
N#CCc1cccc(O)c1 [Compound 8, 3-hydroxy-1-cyanomethylbenzene]										97.7%	103 ± 2%		inhibition at 10 µM ([1]; RBL-2H3, read-out: Percentage of inhibiting A23187-induced β-hexosaminidase release (%) 10 μM/mL): 11 ± 0.8%; inhibition at 100 µM ([1]; RBL-2H3, read-out: Percentage of inhibiting A23187-induced β-hexosaminidase release (%) 100 μM/mL): 8.3 ± 3.4%; inhibition at 500 µM ([1]; RBL-2H3, read-out: Percentage of inhibiting A23187-induced β-hexosaminidase release (%) 500 μM/mL): 11.7 ± 1.5%; inhibition at 10 µM [4]: 1.78 ± 2.29%; inhibition at 10 µM ([2]; RBL-2H3, read-out: Percentage of inhibiting antigen-induced β-hexosaminidase release (%) 10 μM/mL): 13.7 ± 3.9%; inhibition at 100 µM ([2]; RBL-2H3, read-out: Percentage of inhibiting antigen-induced β-hexosaminidase release (%) 100 μM/mL): 13 ± 2.6%; inhibition at 500 µM ([2]; RBL-2H3, read-out: Percentage of inhibiting antigen-induced β-hexosaminidase release (%) 500 μM/mL): 4 ± 3.3%; inhibition at 10 µM [5]: 0.45 ± 4.35%
O=c1c(-c2ccc(O)cc2)coc2cc(O)cc(O)c12 [Genistein, reference compound]													inhibition at 10 µM [4]: 44.2 ± 3.72%; inhibition at 10 µM [5]: 93.37 ± 0.93%
O=c1cc(N2CCOCC2)oc2c(-c3ccccc3)cccc12 [LY294002, reference compound]													inhibition at 10 µM [4]: 72.8 ± 4.03%; inhibition at 10 µM [5]: 95.3 ± 2.78%
VEGF													Cell growth rate (%) HUVEC [8]: 122 ± 2*** %; Cell growth rate (%) EPC ([6]; VEGF 20 ng/mL, positive control): 128 ± 2*** %
